Source: ChEMBL document CHEMBL5303710, “ECBD screening data for assay EOS300044” (2022)

Molecular target: Replicase polyprotein 1ab (Severe acute respiratory syndrome coronavirus 2) (UniProt P0DTD1)
Experiment: Inhibition of SARS-CoV-2 3CL-Pro proteolytic cleavage of a dual-labeled substrate by FRET at 1mM DTT.
Format: functional
Design: assay stage

O=C(/C=C/c1ccc2ccccc2n1)c1ccncc1
IC50 relative: 0.191 µM

Nc1nc(S)c2ncn(C3OC(CO)C(O)C3O)c2n1 (centres undefined)
IC50 relative: 1.45 µM

c1ccc2sc(SSc3nc4ccccc4s3)nc2c1
IC50 relative: 0.537 µM

CC(C)(C)OC(=O)NCCc1nnc(S(=O)(=O)Cc2ccc(Cl)cc2Cl)o1
IC50 relative: 7.29 µM

S=C=Nc1cccc(NC(=S)NCCCCNC(=S)Nc2cccc(N=C=S)c2)c1
IC50 relative: > 20 µM

CCN(CC)C(=S)S
IC50 relative: > 20 µM

Cc1cc(-c2ccc(/C=C3/S/C(=N\c4ccc(Cl)c(C(=O)O)c4)NC3=O)o2)c([N+](=O)[O-])cc1C
IC50 relative: > 20 µM

O=C1C(Cl)=C(Cl)C(=O)C(Cl)=C1Cl
IC50 relative: 0.183 µM

O=C(CC1Sc2ncnn2C1=O)Nc1ccc(Br)cc1 (centres undefined)
IC50 relative: > 20 µM

COc1cc(N(C)C)cc(CN(C)CCc2ccc([N+](=O)[O-])cc2)c1O
IC50 relative: > 20 µM

O=c1c(O)cccc2cc(O)c(O)c(O)c12
IC50 relative: > 20 µM

CN1CCN(C(=O)c2ccc(-c3ccc4c(C=O)c(O)ccc4c3)s2)CC1
IC50 relative: 5.65 µM

Cc1c(-c2ccc(N3CCc4cccc(C(=O)Nc5nc6ccccc6s5)c4C3)nc2C(=O)O)cnn1CC12CC3CC(CC(C3)C1)C2
IC50 relative: > 20 µM

COc1ccnc(C[S+]([O-])c2nc3cc(OC(F)F)ccc3[nH]2)c1OC (centres undefined)
IC50 relative: > 20 µM

O=C(O)c1c(Cl)c(Cl)c(Cl)c(Cl)c1-c1c2cc(I)c(=O)c(I)c-2oc2c(I)c(O)c(I)cc12
IC50 relative: > 20 µM

Cc1cc(C)cc(N2C(=O)CC(Sc3nc[nH]n3)C2=O)c1 (centres undefined)
IC50 relative: > 20 µM

S=C=NCc1ccccc1
IC50 relative: > 20 µM

Cc1ccc(-n2sc3ccccc3c2=O)cc1
IC50 relative: < 0.02 µM

CCOC(=O)c1c(N)sc(-c2ccccc2)c1C
IC50 relative: 3.61 µM

Oc1cc2c(cc1O)C(c1ccccc1)CNCC2 (centres undefined)
IC50 relative: > 20 µM

Cc1ccc(C)c(-n2sc3cc(F)ccc3c2=O)c1
IC50 relative: < 0.02 µM

CC1=CC(=O)c2ccccc2C1=O
IC50 relative: > 20 µM

O=C(c1cccs1)c1no[n+]([O-])c1C(=O)c1cccs1
IC50 relative: > 20 µM

CC(Cc1ccc(O)c(O)c1)C(C)Cc1ccc(O)c(O)c1 (centres undefined)
IC50 relative: > 20 µM

Cc1ccc(S(=O)(=O)N[C@@H](Cc2ccccc2)C(=O)CCl)cc1
IC50 relative: 0.839 µM

CCOc1cc(C(Nc2cc(C)ccn2)c2ccc3cccnc3c2O)ccc1OC (centres undefined)
IC50 relative: > 20 µM

O=C(CCl)c1ccccc1
IC50 relative: 0.246 µM

Cc1ccc(-n2sc(=O)n(Cc3ccc(F)cc3)c2=O)cc1
IC50 relative: 0.148 µM

O=c1c2ccccc2sn1-c1ccccc1
IC50 relative: < 0.02 µM

O=C(NC(=S)N1CCCc2ccccc21)c1ccccc1
IC50 relative: > 20 µM

Sc1nnc(-c2ccccc2Cl)o1
IC50 relative: 7.71 µM

CCCCn1c(NC(=O)c2cccs2)c(C#N)c2nc3ccccc3nc21
IC50 relative: > 20 µM

O=C(c1ccc(Cl)cc1)c1cc([N+](=O)[O-])ccc1N1CCOCC1
IC50 relative: > 20 µM

CCN1CCN(C(c2ccc(C(F)(F)F)cc2)c2ccc3cccnc3c2O)CC1 (centres undefined)
IC50 relative: 1.34 µM

O=c1cc(-c2ccccc2)oc2cc(O)c(O)c(O)c12
IC50 relative: > 20 µM

CCN(CC)S(=O)(=O)c1cccc(-n2sc3ccccc3c2=O)c1
IC50 relative: < 0.02 µM

Oc1cc2c(cc1C(c1ccc(C(F)(F)F)cc1)N1CCOCC1)OCO2 (centres undefined)
IC50 relative: > 20 µM

COc1ccc2[nH]c3c(S)ncnc3c2c1
IC50 relative: > 20 µM

O=[N+]([O-])c1ccc(Sc2cccc[n+]2[O-])c2nonc12
IC50 relative: 0.53 µM

O=C(Nc1ccccc1)Nc1ccc(-c2ccc(C(=O)[C@@H]3CCC[C@H]3C(=O)O)cc2)cc1
IC50 relative: > 20 µM

Nc1ccc(O)c2ncccc12
IC50 relative: > 20 µM

Sc1nnnn1-c1ccccc1
IC50 relative: > 20 µM

Cc1cc(-c2ccc(/N=N/c3ccc4c(S(=O)(=O)O)cc(S(=O)(=O)O)c(N)c4c3O)c(C)c2)ccc1/N=N/c1ccc2c(S(=O)(=O)O)cc(S(=O)(=O)O)c(N)c2c1O
IC50 relative: 0.0219 µM

Cc1c(OCC(F)(F)F)ccnc1C[S+]([O-])c1nc2ccccc2[nH]1 (centres undefined)
IC50 relative: > 20 µM

CN(C)S(=O)(=O)c1cccc(-n2sc3ccccc3c2=O)c1
IC50 relative: < 0.02 µM

Cn1sc(=O)n(Cc2ccccc2)c1=O
IC50 relative: < 0.02 µM

O=C1C(Cl)=C(N2CCOCC2)C(=O)N1c1ccc(Cl)c(Cl)c1
IC50 relative: > 20 µM

NC(Cc1cc(O)c(O)cc1O)C(=O)O (racemic)
IC50 relative: > 20 µM

COc1ccc2[nH]c(S)nc2c1
IC50 relative: > 20 µM

O=C(O)[C@@H](S)[C@@H](S)C(=O)O
IC50 relative: 0.0836 µM

COc1ncc(-c2ccc3nccc(-c4ccnnc4)c3c2)cc1NS(=O)(=O)c1ccc(F)cc1F
IC50 relative: > 20 µM

COC(=O)CC[C@H](NC(=O)[C@H](CC(=O)OC)NC(=O)OCc1ccccc1)C(=O)N[C@H](C(=O)N[C@@H](CC(=O)OC)C(=O)CF)C(C)C
IC50 relative: < 0.02 µM

Sc1nnc(Nc2ccccc2)s1
IC50 relative: > 20 µM

COc1ccc2[nH]c([S+]([O-])Cc3ncc(C)c(OC)c3C)nc2c1 (centres undefined)
IC50 relative: > 20 µM
